Data on 65 compounds can be found in PubChem BioAssay AID652110 (The Scripps Research Institute Molecular Screening Center, 2013).

Calls of active or inactive are those of the source. No rule for the calls is given here.

In the experiment the target is Serine/threonine-protein phosphatase PP1-alpha catalytic subunit (Homo sapiens) (UniProt P62136). In words: inhibition of PP1 activity on phosphorylase substrate – biochemical, radiolabel, 32P-phosphorylase substrate, single concentration, PP1 inhibitor probe project, late-stage follow-up (AID 652110). The conditions noted are these: PP1 dephosphorylation of 32P-glycogen phosphorylase, at 50 µM, active compounds read high.
Chain of Serine/threonine-protein phosphatase PP1-alpha catalytic subunit (Homo sapiens) (P62136 whole entry, looked up): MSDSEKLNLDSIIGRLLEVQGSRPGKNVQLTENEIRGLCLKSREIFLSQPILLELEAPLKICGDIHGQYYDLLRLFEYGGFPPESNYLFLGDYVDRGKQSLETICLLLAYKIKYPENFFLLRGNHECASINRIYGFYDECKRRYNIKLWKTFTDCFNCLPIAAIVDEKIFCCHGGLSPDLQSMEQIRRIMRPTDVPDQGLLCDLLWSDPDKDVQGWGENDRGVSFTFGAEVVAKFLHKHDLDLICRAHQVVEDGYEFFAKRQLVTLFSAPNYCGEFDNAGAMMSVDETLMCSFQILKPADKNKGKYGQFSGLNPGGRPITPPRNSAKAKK
Turning to `O=C(NC1(O)C(=O)c2ccccc2C1=O)c1c(Cl)cccc1Cl`, the inhibition – broadly, the relative decrease from the control value, in per cent – is 33.1% (inactive).

Take `COc1cnc(-c2ccccn2)nc1Sc1ccc(C)cc1`: the inhibition was 9.79% (inactive).

With `CN1CCN(C(c2ccccn2)c2cc(Cl)c3cccnc3c2O)CC1` (stereo not given), the inhibition is 97%.

On to `CCCCn1c(NC(=O)c2ccco2)c(C(=O)OCC)c2nc3ccccc3nc21`, for which the inhibition is 29.8% (inactive).

On to `COc1ccc(Sc2nc(-c3ccccn3)ncc2OC)cc1`, for which the inhibition is -0.0224% (inactive).

Consider `COc1cc(Br)c(C(=O)c2nccc3cc(OC)c(OC)cc23)cc1OC`, for which the inhibition is 9.5% (inactive).

Consider `CCOc1ccc(NC(=S)Nc2ccc3nsnc3c2)cc1`, for which the inhibition was 9.35% (inactive).

For `CCOC(=O)c1cnc(-n2nc(C)cc2C)nc1NC1CCCCC1`, the inhibition is 16.3% (inactive).

On to `COc1ccc(OCCCC(=O)Nc2nc(-c3ccccn3)cs2)cc1`, for which the inhibition was 19.4% (inactive).

As to `N#Cc1c(N2CCCC(O)C2)nc(N)c2c(N)nc3c(c12)CC(=O)N3C12CC3CC(CC(C3)C1)C2` (stereo not given), the inhibition was 24.2% (inactive).

For the compound `COc1cnc(-c2ccccn2)nc1Oc1cccc(Cl)c1`, the inhibition was 3.5% (inactive).

Take `COc1cnc(-c2ccccn2)nc1Sc1ccccc1`: the inhibition is 0.752% (inactive).

In the case of `O=c1[nH]c(Nc2ccccc2)cc2ccccc12`, the inhibition was 19% (inactive).

For the compound `O=C(NC1(O)C(=O)c2ccccc2C1=O)c1ccc(C(F)(F)F)cc1`, the inhibition was 39.2% (inactive).

Regarding `Nc1nc(-c2ccccn2)nc(N)c1Cc1ccc(Cl)cc1Cl`, the inhibition is 22.1% (inactive).

In the case of `O=S(=O)(Cc1cc(NCc2ccccc2)nc(-c2ccccn2)n1)c1ccccc1`, the inhibition was 11.7% (inactive).

Turning to `O=C(Nc1nc(-c2ccccn2)cs1)C1CC(=O)N(c2ccc3c(c2)OCCO3)C1` (stereo not given), the inhibition is 19.7% (inactive).

On to `Cc1ccc(C(=O)NC2(O)C(=O)c3ccccc3C2=O)cc1C`, for which the inhibition is 29.6% (inactive).

For `COc1ccc(CN2C(=O)Cc3c2nc(N)c2c(N)nc(N4CCCCC4)c(C#N)c32)cc1`, the inhibition is 45.7% (inactive).

Regarding `O=C(O)C1C2CCC(O2)C1C(=O)NC1CCCCC1` (stereo not given), the inhibition was 66.1% (inactive).

For the compound `CCOC(=O)c1cnc(-n2nc(C)cc2C)nc1NC(C)c1ccccc1` (stereo not given), the inhibition was 15.8% (inactive).

Regarding `COc1ccc(NC(=S)Nc2ccc3nsnc3c2)cc1`, the inhibition was 13.3% (inactive).

`Nc1cc2nsnc2cc1Br`: the inhibition is 27.9% (inactive).

`Cc1cc(C)c(S(=O)(=O)/N=C2\C=C(Sc3ncn[nH]3)C(=O)c3ccccc32)cc1C`: the inhibition is 30.5% (inactive).

On to `CCCN(CC1CC1)c1nc(N)c2c(N)nc(OC)cc2c1C#N`, for which the inhibition was 8.48% (inactive).

As for `Cc1nnc(NC(=O)C2C3C=CC(O3)C2C(=O)O)s1` (stereo not given), the inhibition was 56.1% (inactive).

For the compound `CCCCN(CC)c1nc(N)c2c(N)nc(OCC)cc2c1C#N`, the inhibition is 17.2% (inactive).

Regarding `CCOC(=O)c1cnc(-n2nc(C)cc2C)nc1NCCc1ccccc1`, the inhibition was 16.9% (inactive).

`CC(=O)C(C(C)=O)C1(O)C(=O)c2ccccc2C1=O`: the inhibition is 24.6% (inactive).

`O=C(O)c1cc(-c2ccc(Cl)c(Cl)c2)n(-c2ccc(F)cc2)n1`: the inhibition was 8.75% (inactive).

Take `COc1cnc(-c2ccccn2)nc1Sc1ccccc1Cl`: the inhibition was 9.17% (inactive).

Take `Cc1[nH]n(-c2ccccc2)c(=O)c1C(c1ccc([N+](=O)[O-])cc1)c1c(C)[nH]n(-c2ccccc2)c1=O`: the inhibition was 48.3% (inactive).

With `O=C(O)c1cc(-c2ccc(Cl)c(Cl)c2)n(-c2ccccc2)n1`, the inhibition is 12.2% (inactive).

Turning to `COc1cnc(-c2ccccn2)nc1Sc1ccc(Cl)cc1`, the inhibition is 12.2% (inactive).

As for `COc1ccccc1Sc1nc(-c2ccccn2)ncc1OC`, the inhibition was -0.402% (inactive).

On to `CCOC(=O)C1=C(C)OC2(O)c3ccccc3C(=O)C12O` (stereo not given), for which the inhibition is 17.4% (inactive).

In the case of `COc1cnc(-c2ccccn2)nc1Sc1ccc(F)cc1`, the inhibition was 3.69% (inactive).

Regarding `c1ccc(Nc2nc(-c3ccccn3)cs2)cc1`, the inhibition is 13.2% (inactive).

For the compound `c1ccc(-c2nccc(-c3ccc(-n4cnc5ccccc54)cc3)n2)nc1`, the inhibition is 43% (inactive).

Take `O=C1CCCC2=C1C1(O)C(=O)c3ccccc3C1(O)O2` (stereo not given): the inhibition is 19.8% (inactive).

Regarding `CC(C)(CS(=O)(=O)[O-])NC(=O)CC[N+](C)(C)CCO`, the inhibition was 3.71% (inactive).

Consider `CCn1c2ccccc2c2cc(NC(=O)COC(=O)c3ccc(NC(=O)CC#N)cc3)ccc21`, for which the inhibition was 74.6%.

Regarding `CCOC(=O)c1nn(-c2ccc(C)cc2)c(=O)c2c(N)scc12`, the inhibition was 12.3% (inactive).

As for `Oc1ccccc1/C=N/Nc1cc(N2CCCC2)nc(N2CCCC2)n1`, the inhibition is 17.2% (inactive).

`Oc1cccc(/C=N/Nc2cc(N3CCCC3)nc(N3CCCC3)n2)c1`: the inhibition was 20.3% (inactive).

Consider `O=C1Nc2ccccc2N2CCCC12` (stereo not given), for which the inhibition is 9.82% (inactive).

In the case of `COc1ccc(NC(=O)C2C3CCC(O3)C2C(=O)O)c(OC)c1` (stereo not given), the inhibition is 73.9%.

Take `CCOC(=O)c1cnc(-n2nc(C)cc2C)nc1NCc1ccccc1`: the inhibition was 7.11% (inactive).

As for `COc1ccc(Cn2c(N)c(C(=O)NCc3ccco3)c3nc4ccccc4nc32)cc1OC`, the inhibition is 8.99% (inactive).

With `Clc1ccc(-n2nnnc2-c2cnc(-c3ccccn3)nc2-c2cccs2)cc1`, the inhibition was 0.651% (inactive).

For the compound `O=C(O)c1n[nH]nc1-c1ccccc1`, the inhibition was 22.4% (inactive).

For `Oc1ccc(/C=N/Nc2cc(N3CCOCC3)nc(N3CCOCC3)n2)c(O)c1`, the inhibition was 20.3% (inactive).

For the compound `Cc1ccc(-n2nc(C(=O)O)cc2-c2ccc(Cl)cc2)cc1`, the inhibition was 5.4% (inactive).

As for `O=C(NC1(O)C(=O)c2ccccc2C1=O)c1ccccc1`, the inhibition was 30.4% (inactive).

For the compound `CCOC(=O)c1sc(N2C(=O)C(O)=C(C(=O)c3ccco3)C2c2cccc([N+](=O)[O-])c2)nc1C` (stereo not given), the inhibition was 51.3% (inactive).

`COc1cnc(-c2ccccn2)nc1Oc1cccc(C(F)(F)F)c1`: the inhibition is 0.507% (inactive).

Consider `COc1cnc(-c2ccccn2)nc1Sc1cccc(Cl)c1`, for which the inhibition was 23% (inactive).

Consider `O=C(O)c1cc(-c2ccc(Cl)cc2)n(-c2cccc(Cl)c2)n1`, for which the inhibition was 12% (inactive).

`CCOC(=O)c1cnc(-n2cc(C)cn2)nc1NCc1ccc2c(c1)OCO2`: the inhibition is 21.6% (inactive).

With `Cc1ccc(C(=O)NNc2cc(N3CCCC3)nc(N3CCCC3)n2)cc1`, the inhibition was 14.4% (inactive).

For `COc1ccc2c(Cl)c(C(=O)N/N=C/c3ccc4c(c3)OCO4)sc2c1`, the inhibition is 33.4% (inactive).

As for `CCOC(=O)c1sc2nc3c(SCC(=O)O)cc(C(=O)c4cc(F)ccc4O)cn3c(=O)c2c1C`, the inhibition was 92.2%.

Consider `COc1ccc(C(=O)c2nccc3cc(OC)c(OC)cc23)cc1OC`, for which the inhibition was 9.58% (inactive).

Regarding `COc1ccc(Cl)cc1C(=O)Nc1cccc(-c2ccc3nncn3n2)c1`, the inhibition was 61.7% (inactive).

For the compound `N#Cc1c(-c2ccc(Cl)cc2)cc(-c2cccs2)nc1SCC(=O)O`, the inhibition was 81.6%.
